How the values were obtained:
rabbit heart [1] = test: Rabbit heart cold preservation (24 h, 4° C.) and Langendorff reperfusion: developed pressure
Protocol: Male New Zealand rabbits (1.4-1.8 kg weight) were kept on a standard laboratory diet supplemented with “Nossan pellet” (both the animals and pellets are available from Nossan Company, Milan, Italy) and were housed for three weeks (relative humidity 50% ±10%, temperature 22° C.±1° C. and in a light/darkness cycle of 12 hours/12 hours, with first light at 7.30 a.m.) prior to the experiments; food and water were available ad libitum.
The hearts were quickly excised from anesthetized animals (55 mg/kg body weight sodium pentobarbital; ten rabbits for each experiment group were used) flushed with the respective experimental solutions and placed in either cold (4° C.) Celsior and Celsior plus 5 mM MP1001 or Celsior plus GSH 5 mM for 24 hours. Because Celsior standard solution contains 3 mM reduced glutathione (GSH), comparative experiments in term of “total antioxidant power” using equimolar antioxidant amount (e.g. adding 5 mM MP1001 or 5 mM GSH to Celsior) were performed. […]
After 24 hours of cold preservation and reperfusion for 1 hour, the developed pressure (as a measure of protection) of the hearts preserved in Celsior (standard/control) was a mean of 34±9.55 mmHg. […] We determined that this level of recovery was not sufficient and proceeded to add the cardioprotective antioxidant MP1001 (5 mM) or GSH (5 mM, to have a final, equimolar 8 mM “antioxidant concentration”).

rabbit heart [2] = test: Lipid peroxidation (MDA release) in rabbit hearts after 1 h reperfusion
Protocol: (§1) The hearts were quickly excised from anesthetized animals (55 mg/kg body weight sodium pentobarbital; ten rabbits for each experiment group were used) flushed with the respective experimental solutions and placed in either cold (4° C.) Celsior and Celsior plus 5 mM MP1001 or Celsior plus GSH 5 mM for 24 hours. Because Celsior standard solution contains 3 mM reduced glutathione (GSH), comparative experiments in term of “total antioxidant power” using equimolar antioxidant amount (e.g. adding 5 mM MP1001 or 5 mM GSH to Celsior) were performed.
(§2) At the end of cold preservation, the organs were then reperfused in a Langerdoff working heart model with oxygenated Krebs-Henseleit buffer (120 mM NaCl, 25 mM NaHCO3, 4.9 mM KCl, 1.2 mM KH2PO4, 2.5 mM CaCl2, 1.25 MgSO4 and 10 mM glucose). The buffers were bubbled regularly with a mixture of O2 (95%) and CO2 (5%); the CO2 helped maintain the buffer at a physiological pH (7.4). In the mean time, the apparatus had extensive water-jacketing connected to a water heater that maintained buffers and hearts at 37° C. The buffers was filtered through a Gelman GA-4, 0.8 μm metrical, membrane before the use. […]
(§3) Lipid peroxidation was determined by quantification of the release of malondialdeyde (MDA) accumulated in cells which was used as biomarker, essentially according to Buege Y. A. & Aust S. G., Method Enzymol. […]

rabbit heart [3] = test: Carbonyl proteins in rabbit hearts after 1 h reperfusion
Protocol: as §1, §2, §3

rabbit heart [4] = test: LDH levels in the perfusate of rabbit hearts after 1 h reperfusion
Protocol: as §1, §2, §3

rabbit heart [5] = test: Histopathological analysis of rabbit hearts after 1 h reperfusion; details: hearts stored in Celsior plus 5 mM MP1001 as compared to GSH
Protocol: as §1
as §2, with “use. A saline-filled latex balloon connected through a pressure transducer to a polygraph recorder was inserted into the left ventricle through a left atriotomy and secured by a suture to the mitrial annulus.” for “use.”

[6] = rabbit hearts, 24 h cold preservation in Celsior (additive 5 mM where given)

Row | SMILES | protection (developed pressure) compared to standard Celsior solution (rabbit heart [1]; 5 mM added to Celsior (8 mM GSH final), 24 hours cold preservation, 1 h reperfusion) | effect on lipid peroxidation vs standard Celsior (rabbit heart [2]; additional 5 mM in Celsior) | effect on carbonyl proteins vs standard Celsior (rabbit heart [3]; 5 mM supplement in Celsior) | effect on LDH vs standard Celsior (rabbit heart [4]; 5 mM supplement in Celsior) | developed pressure (rabbit heart [1]; rabbit hearts, 24 hours cold (4° C.) preservation in Celsior (additive 5 mM where given), reperfusion for 1 hour) [mmHg] | lipid peroxidation (malondialdeyde, MDA) (rabbit heart [2]; [6]) | carbonyl proteins (rabbit heart [3]; [6]) | LDH levels in the perfusate (rabbit heart [4]; [6]) | histopathological analysis (myocyte injury, edema, endotelial damage) (rabbit heart [5])
1 | N[C@@H](CCC(=O)N[C@@H](CS)C(=O)NCC(=O)O)C(=O)O [GSH, reduced glutathione, reference compound] | did not provide any additional protection | did not significantly modify this parameter | not modified | not modified |  |  |  |  | 
2 | CC1(C)CC(OC(=O)CCCCCCCCC(=O)OC2CC(C)(C)N(O)C(C)(C)C2)CC(C)(C)N1O [MP1001, bis(1-hydroxy-2,2,6,6-tetramethyl-4-piperidinyl)decandioate] |  |  |  |  | 88±9.02 | 0.31±0.10 | 48±11 | 0.3±0.1 | Hearts sustained less injury by all criteria examined
